Test results from patent US11491127B2, “Therapeutic use of compounds” (UCL BUSINESS LTD, priority 2010, dated 2022).

Experiments:
[1] = system: phosphoinositide (PIP and PIP2) turnover in Dictyostelium AX2 cells; test: Dictyostelium phospholipid labelling (PIP and PIP2 turnover); type: cell-based, Dictyostelium discoideum; settings: wild type Dictyostelium; for activity at 500 µM: Dictyostelium, 0.1 h, read-out: PIP Level (% control), Table 1, 0.5 mM compound, 3 min pre-treatment + 6 min labelling
Method: Phospholipid labelling was quantified using a Typhoon phosphor-imager. Even loading was determined using total lipid stain with copper sulphate.

[2] = system: inositol trisphosphate (InsP3) levels in Dictyostelium; settings: Eickholt et al., 2005; cited from earlier work
[3] = system: PTZ-induced epileptiform activity in entorhinal cortex-hippocampal slices; test: In vitro PTZ acute seizure model, entorhinal cortex-hippocampus slices; type: cell-based, rat; settings: PTZ 2 mM, [K+] 6 mM; compounds equimolar 1 mM; 30 to 40 minutes after application
Method: (§1) The rats (p21) were decapitated after killing by intraperitoneal injection with an overdose of pentobarbitone (500 mg/kg). The brain was removed and placed in ice-cold sucrose solution in mM: NaCl 87, KCl 2.5, MgCl2 7, CaCl2 0.5, NaH2PO4 1.25, sucrose 75, glucose 25, equilibrated with 95% 02/5% CO2 (pH 7.4). Horizontal combined entorhinal cortex-hippocampus slices (350 μm) were prepared with a Leica vibratome (Leica V T1200S) and were then stored in an interface chamber that contained artificial cerebrospinal fluid solution (aCSF) containing in mM: NaCl 119, KCl 2.5, MgSO4 4, CaCl2 4, NaHCO326.2, NaH2PO4 1, glucose 11, and gassed with 95% O2/5% CO2. They were stored for over one hour before being transferred to a submersion recording chamber continually perfused with carbogenated aCSF for recording. Field potential recordings were made by placing glass microelectrodes (˜1-2 MΩ) filled with aCSF solution in stratum radiatum of CA1. Bipolar stimulating electrodes were positioned in the Schaffer collateral/commissural fibre pathway in stratum radiatum to confirm slice viability. In the PTZ acute seizure model, PTZ (2 mM) was added to the perfusate and [K+] was increased to 6 mM in order to induce epileptiform activity (Armand et al., 1998). In the low Mg^2+ acute seizure model, Mg^2+ free aCSF was applied to generate rhythmic short recurrent discharges. Novel anticonvulsants were applied once the frequency and amplitude of the epileptiform discharges were stable over a period of 10 min. Anticonvulsant effects were evaluated by measuring the variation of frequency of the discharges every minute. The data acquired from the 30 to 40 minutes after application novel anticonvulsants were compared by ANOVA followed by post-hoc testing using Tukey test, using SPSS statistical analysis.

[4] = system: low magnesium-induced burst discharges in entorhinal cortex-hippocampal slices; test: In vitro low Mg2+ acute seizure model, entorhinal cortex-hippocampus slices; type: cell-based, rat; settings: 1 mM, 30-40 minutes after application
Method: as §1, with “In the low Mg^2+ acute seizure model, Mg^2+ free aCSF was applied to generate rhythmic short recurrent discharges. Novel anticonvulsants were applied once the frequency and amplitude of the epileptiform discharges were stable over a period of 10 min.” left out, “The data acquired from the 30 to 40 minutes after application novel anticonvulsants were compared by ANOVA followed by post-hoc testing using Tukey test, using SPSS statistical analysis.” left out

[5] = system: self-sustaining status epilepticus in Sprague Dawley rats; test: In vivo status epilepticus (perforant path stimulation); parameters: species or system rat; settings: 400 mg/kg
Method: This method has been described in detail previously (Walker et al., 1999). In brief, male Sprague Dawley rats […] were anesthetized with 1-2% isoflurane in O2. An earth electrode was positioned subcutaneously, and a monopolar recording electrode was implanted stereotactically into the right hippocampus (coordinates, 2.5 mm lateral and 4 mm caudal from bregma). A bipolar stimulating electrode was implanted in the right hemisphere and advanced into the angular bundle (coordinates, 4.4 mm lateral and 8.1 mm caudal from bregma) to stimulate the perforant path. The depths of the electrodes were adjusted to maximize the slope of the dentate granule cell field potential (Guo et al., 1999). The electrodes were held in place with dental acrylic and skull screws. The animals were allowed to recover from anaesthesia. Seven days later, the perforant path was electrically stimulated with 4-5 mA 50 μsec monopolar pulses at 20 Hz for 2 hr; this induced self-sustaining status epilepticus. After 10 min of self-sustaining status epilepticus, compounds or vehicle were administered and the behavioural seizures and EEG were monitored for 3 hours. At this point diazepam (10 mg/kg) was administered to all animals to stop the status epilepticus. Groups were compared by ANOVA followed by post-hoc testing using Tukey test, using SPSS.

[6] = system: release of 3H arachidonic acid / palmitic acid radiolabel from Dictyostelium cells; test: Fatty acid release (3H radiolabel release from labelled cells); type: cell-based, Dictyostelium discoideum
[7] = system: uptake of 3H arachidonic acid / palmitic acid into Dictyostelium cells; test: Fatty acid uptake (3H radiolabel incorporation into cells); type: cell-based, Dictyostelium discoideum; settings: 3H-AA; FIG. 9
[8] = system: inositol levels in Dictyostelium cells; test: Inositol levels in treated Dictyostelium cells; type: cell-based, Dictyostelium discoideum; settings: time period causing phosphoinositide attenuation (9 min)
Method: Following a 6 min incubation, labelling solution was removed and cells were lysed in acidified methanol and phospholipids were separated as previously detailed (Williams et al., 1999). Phospholipid labelling was quantified using a Typhoon phosphor-imager. Even loading was determined using total lipid stain with copper sulphate. Inositol levels were measured from five hour developed cells (similar to phospholipid labelling), following lyophilisation, as previously described (Maslanski & Busa, 1990).

[9] = system: self-sustaining status epilepticus in Sprague Dawley rats; settings: previously shown (Chang et al., 2009); cited from earlier work
[10] = biological target: T1, human myo-inositol synthase (Homo sapiens, UniProt Q9NPH2); settings: Shaltiel et al., 2004, 2007a; cited from earlier work
T1 sequence (Q9NPH2 1-558): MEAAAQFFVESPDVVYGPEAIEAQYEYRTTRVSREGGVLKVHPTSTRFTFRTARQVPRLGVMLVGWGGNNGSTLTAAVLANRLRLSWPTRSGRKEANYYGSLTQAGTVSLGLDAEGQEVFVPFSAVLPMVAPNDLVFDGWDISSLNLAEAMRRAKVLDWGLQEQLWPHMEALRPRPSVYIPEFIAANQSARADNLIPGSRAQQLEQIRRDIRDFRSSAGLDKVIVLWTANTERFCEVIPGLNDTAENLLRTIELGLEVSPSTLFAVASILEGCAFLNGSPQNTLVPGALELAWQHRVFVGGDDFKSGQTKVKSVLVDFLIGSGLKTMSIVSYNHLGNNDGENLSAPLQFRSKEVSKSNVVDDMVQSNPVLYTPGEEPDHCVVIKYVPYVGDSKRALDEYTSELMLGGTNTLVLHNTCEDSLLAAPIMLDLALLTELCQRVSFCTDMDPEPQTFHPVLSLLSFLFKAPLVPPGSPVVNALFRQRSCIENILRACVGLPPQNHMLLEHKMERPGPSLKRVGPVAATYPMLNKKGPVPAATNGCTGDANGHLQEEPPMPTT

CCC=C(C)C(=O)O [2-methyl-2-pentenoic acid]
activity at 500 µM [1]: 14.8%
InsP3 depletion [2]: strong InsP3 depletion

CCCCC(C)CCC(=O)O (centres unmarked) [4-methyloctanoic acid]
activity at 500 µM [1]: 12%
reduction of PIP2 signalling ([1]; Table 1): 93%
reduction of PIP signalling ([1]; Table 1): 88%
frequency of epileptiform discharges (seizure discharge frequency) [3]: 49.1±4.4%
frequency of low magnesium-induced burst discharges [4]: almost abolished
frequency of low magnesium-induced burst discharges ([4]; listed as 4-MO): 1.6±3.1 % of baseline
animals in which status epilepticus terminated (spike frequency of less than 1 Hz) [5]: all
seizure control in words ([5]; 3 hour test period): protected against seizures over the test period
animals in which seizures completely stopped ([5]; after 2 hours, 7 animals per group): 7 animals
animals in which seizure stop was maintained ([5]; by three hours): five out of seven
mean spike frequency ([5]; first hour): 39.3±11.3%
mean spike frequency ([5]; second hour): 18.1±10.3%
mean spike frequency ([5]; third hour): 26.9±12.3%
inhibitory effect on radiolabel release ([6]; 3H-AA, FIG. 9): weak
activity at 500 µM ([6]; Dictyostelium, 0.5 h, Table 3, 3H-AA labelled cells, 30 min, 0.5 mM treatment, read-out: AA release [% of control]): 66%
effect on 3H-AA uptake compared with VPA [7]: reduced effect on uptake
reduction in inositol levels [8]: do not acutely deplete inositol

O=C1NC(=O)C(c2ccccc2)(c2ccccc2)N1 [phenytoin]
response of the status epilepticus model [9]: resistant

CCCC(CCC)C(N)=O [valpromide, 2-propylpentamide, reference compound]
activity at 500 µM [1]: 69.3%
radiolabel release activity relative to control ([6]; Table 3, 30 min, 0.5 mM): virtually no inhibition
inhibition of human myo-inositol synthase [10]: weak inhibition
